Test results: patent US20200165653A1, “METHOD OF MEASURING FLUID SECRETION FUNCTION OF EPITHELIAL CELLS” (NATIONAL UNIVERSITY CORPORATION TOKYO MEDICAL AND DENTAL …, priority 2017, published 2020)
Where a name gives a salt, the structure may show the parent alone. No end group written: not given here.

Experiments:
[1] = system: human intestinal organoids; assay: Organoid swelling observed by phase contrast / time-lapse imaging; type: cell-based; settings: for increase in cross-sectional area of organoids: 60 min after induction, same mediator concentrations as FIG. 11; for swelling response induced by endogenous mediator: PGE2 10^−8 M, VIP 10^−7 M, ACh 10^−3 M, histamine 10^−3 M, bradykinin 10^−5 M, serotonin 10^−3 M, up to 60 min after induction
Protocol: The phase contrast images illustrated are prior to swelling induction and 60 minutes after swelling induction. Scale-bar: 100 μm. Induction was by the addition to a culture medium of: PGE2 (10^−8 M, (A)), VIP (10^−7 M, (B)), ACh (10^−3 M, (C)), histamine (10^−3 M, (D)), bradykinin (10^−5 M, (E)), and serotonin (10^−3 M, (F)).
Examination of Endogenous Mediator Candidates for Anion/Fluid Secretion Next, the fluid secretion function measurement method of the present embodiment was employed to examine the direct effect of various endogenous mediators that might possibly induce anion/fluid secretion from intestinal epithelial cells by testing six types of endogenous mediators to determine if they had the capability to induce a swelling response in organoids equivalent to that of forskolin-induced swelling.

[2] = system: human jejunum-derived organoids; assay: Organoid swelling response quantified by cross-sectional area with 3D-scanning system; type: cell-based; settings: for dose-response curve profile of swelling: human jejunal organoid, FIG. 12
Protocol: The organoid cross-sectional area was measured using a 3D-Scanning System (Cell3 […], Screen Holdings, Kyoto, Japan) as the image analysis device 100. […] After the passage of a preliminary culture process of leaving for 24 hours after seeding, scanning was then performed both before and 30 min after the addition of the reagent subject to analysis. An image was acquired during scanning in auto-focus (AF) mode. The analysis parameters summarized in following Table 1 were set and the cross-sectional area of recognized organoids measured automatically. Note that changes over time due to the addition of a reagent subjected to analysis can be observed in the following manner. Namely, an object is imaged at time (T0) prior to adding a reagent subjected to analysis (T0 imaging process). Then the same object is imaged at time (TN) when a prescribed time (30 minutes, for example) has elapsed since adding the reagent subjected to analysis. Determination is then made as to whether or not the object is an object subjected to analysis. By performing the selection process and the determination process, the change over time observations are only made for objects determined be subjected to analysis thereby at both time T0 and time TN. Then in an area change calculation process, an area (A0) at time T0 and an area (AN) at time TN are calculated for the objects subject to analysis. The change over time (%) based thereon can be found, for example, using the following formula. (AN-A0)/A0×100 Using forskolin-induced swelling as a positive control, testing was next performed so see if such a swelling response could be quantified using the 3D-scanning system described. To optimize the quantification efficiency and accuracy, organoids were subjected to analysis after performing the preliminary culture process at one day after the last passage. This was done since the organoids generally held their cystic shape at this time point. The thresholds to recognize cross-section borders of each organoid were then optimized as set out in Table 1. Thus utilizing the fluid secretion function measurement method of the present embodiment enables drug response screening to be performed at the same time as determining the dose-dependency curves of a limited number of test reagents. Whether or not the present system could determine the dose-dependency curves of forskolin was thereby tested. The dose-dependency curve for forskolin-induced swelling when using a human jejunum-derived organoids was thereby found to be expressed by a standard sigmoid shaped curve, with the log EC50 value thereof calculated as -7.58 (FIG. 10).

EC50 ([2]; human small intestinal (jejunum-derived) organoids, sigmoid dose-dependency curve, average of at least three independent tests, value is log EC50, read-out: log EC50 of forskolin-induced swelling (converted)) [nM]	Compound	increase in cross-sectional area of organoids [1]	swelling response induced by endogenous mediator [1]	dose-response curve profile of swelling [2]	time for which swelling continued ([1]; small intestinal organoids, forskolin 10^−5 M)	time of continuous linear swelling response after stimulation ([2]; forskolin 10^−5 M, observed up to 240 min, area change calculation)
–	CCCCC[C@H](O)/C=C/[C@H]1[C@H](O)CC(=O)[C@@H]1C/C=C\CCCC(=O)O [PGE2, prostaglandin E2]	large overall increase	rapid and continuous response	clear sigmoid-shaped response curve	–	–
26.3	C=C[C@@]1(C)CC(=O)[C@]2(O)[C@@]3(C)[C@@H](O)CCC(C)(C)[C@@H]3[C@H](O)[C@H](OC(C)=O)[C@@]2(C)O1 [forskolin]	–	–	–	at least 60 min	up to 30 min
–	NCCc1c[nH]cn1 [histamine]	smaller than for PGE2 or VIP	slow and limited response	markedly lower response profile	–	–
–	NCCc1c[nH]c2ccc(O)cc12 [serotonin, serotonin hydrochloride]	–	did not exhibit a clear effect	–	–	–
–	vasoactive intestinal polypeptide (HSDAVFTDNYTRLRKQMAVKKYLNSILN; ends and bridges not checked; UniProt P01282 125-152, looked up) [VIP, endogenous mediator acting through Gs-coupled receptors]	large overall increase	rapid and continuous response	clear sigmoid-shaped response curve	–	–
